For one compound, EC50 results are on record in publication PMC13286569 (eLife, 2026).

The target in the experiment is T1, DcDop2 (Diaphorina citri, UniProt A0A3Q0INR4).
T1 construct: gene LOC103507230; full ORF (2049 nt, 682 residues) in pcDNA3.1, transiently expressed in CHO-WTA11 cells (Galpha16 and aequorin)
T1 sequence (A0A3Q0INR4 1-682): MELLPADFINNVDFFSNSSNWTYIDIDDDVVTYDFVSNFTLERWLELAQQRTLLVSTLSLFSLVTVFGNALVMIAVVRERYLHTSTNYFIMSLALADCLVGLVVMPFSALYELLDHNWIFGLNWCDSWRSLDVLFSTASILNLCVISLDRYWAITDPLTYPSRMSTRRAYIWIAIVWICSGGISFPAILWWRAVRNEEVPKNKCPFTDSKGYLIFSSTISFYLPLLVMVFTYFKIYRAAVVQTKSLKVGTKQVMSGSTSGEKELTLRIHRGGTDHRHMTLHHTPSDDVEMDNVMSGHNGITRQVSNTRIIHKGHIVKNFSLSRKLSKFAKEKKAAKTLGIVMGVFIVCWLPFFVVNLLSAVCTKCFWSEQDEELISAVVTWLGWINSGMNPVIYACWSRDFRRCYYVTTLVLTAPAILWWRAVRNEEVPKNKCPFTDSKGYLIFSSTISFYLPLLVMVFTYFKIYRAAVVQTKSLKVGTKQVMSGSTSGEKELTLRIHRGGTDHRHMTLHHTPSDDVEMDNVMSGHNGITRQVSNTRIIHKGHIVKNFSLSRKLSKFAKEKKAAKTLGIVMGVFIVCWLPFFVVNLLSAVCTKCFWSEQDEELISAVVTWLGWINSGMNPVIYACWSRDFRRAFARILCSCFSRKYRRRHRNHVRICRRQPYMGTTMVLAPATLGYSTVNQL
Description: aequorin calcium mobilization luminescence in transfected CHO-WTA11 cells. It is filed as cell-based.

For the compound `NCCc1ccc(O)c(O)c1` [DA, dopamine], the EC50 was 4.05 nM.

The EC50 is the concentration needed to bring the measured effect to its halfway point.
